{
  "source": "patent US20250151724A1",
  "about": "“Liquid Soil Treatments Containing Choline” (Harrell's, LLC, priority 2023, published 2025)",
  "system": "creeping bentgrass",
  "experiment": "Experiment No. 1: growth chamber pot trial, foliar GB and choline under heat and mild drought stress",
  "assay_type": "in vivo",
  "conditions": "for increase of chlorophyll content: day 56, vs control; for Root Viability: TTC method",
  "protocol": "A growth chamber pot trial was conducted as follows. […] The choline used in this study was supplied in the form of choline chloride from Sigma-Aldrich, Inc. (St. Louis, MO). […] These conditions simulated summer putting green stress. The treatments were as follows: • 1. […] GB at 0.5 oz./1,000 ft^2 every 14 days. • 3. GB at 1.0 oz./1,000 ft^2 every 14 days. • 4. […] The rate and source of fertilization for treatments #2-7 was the same as treatment #1 (fertilized control), so all seven treatments received identical fertility input. […] The term “low rate” is used in this description of Experiment No. 1 to refer to 0.5 oz./1,000 ft^2 treatments, while the term “high rate” is used to refer to 1.0 oz./1,000 ft^2 treatments. […] Photochemical efficiency (PE). Photochemical Efficiency was measured with a chlorophyll fluorometer (OS-50II, Opti-Sciences, Inc., Hudson, NH) biweekly based on the Fv/Fm, which is the ratio of variable chlorophyll fluorescence (Fv) to maximum chlorophyll fluorescence (Fm). […] Chlorophyll content. After clipping yields were weighed, leaf tissues were ground into powder, and chlorophyll was extracted in pure acetone content for 72 hours, and the absorbance was measured using a spectrophotometer. • e. Leaf carotenoids were extracted in the same sample as for chlorophyll content and carotenoids were measured using a spectrophotometer (Zhang et al., 2005). • f. Leaf proline content. […] After centrifuging, the supernatant was collected, and proline was analyzed according to Wu et al., 2017. • g. Root viability. […] Root growth characteristics. At the end of trial, roots from each pot were washed and cleaned. Roots were scanned using WinRHIZOTM technology (Regent Instruments Inc., Quebec, Canada), and root length, root surface area, root diameter, and root volume were calculated. (Zhang et al., 2017). • i. Root biomass of each pot was determined at the end of the trial. Roots were dried at 65° C. for 72 hours before being weighed.",
  "data": [
    {"smiles": "C[N+](C)(C)CCO.[Cl-]", "note": "[Choline, choline chloride]", "values": [
      {"measurement": "increase of chlorophyll content", "setting": "0.5 oz", "result": 32.4, "unit": "%"},
      {"measurement": "Clippings dry wt", "setting": "0.5 oz/1000 ft^2, Total", "result": 0.691, "unit": "bc g/pot"},
      {"measurement": "Carotenoids", "setting": "0.5 oz/1000 ft^2, day 0", "result": 1.32, "unit": "a mg/g FW"},
      {"measurement": "Chlorophyll", "setting": "0.5 oz/1000 ft^2, day 0", "result": 3.50, "unit": "a mg/g FW"},
      {"measurement": "Leaf color (1-9, 9 = dark green)", "setting": "0.5 oz/1000 ft^2, day 0", "result": 7.5, "unit": "a"},
      {"measurement": "PE (Fv/Fm)", "setting": "0.5 oz/1000 ft^2, day 0", "result": 0.763, "unit": "a"},
      {"measurement": "Proline", "setting": "0.5 oz/1000 ft^2, day 0", "result": 20.1, "unit": "a mg/g FW"},
      {"measurement": "Carotenoids", "setting": "0.5 oz/1000 ft^2, day 14", "result": 1.32, "unit": "a mg/g FW"},
      {"measurement": "Chlorophyll", "setting": "0.5 oz/1000 ft^2, day 14", "result": 3.51, "unit": "a mg/g FW"},
      {"measurement": "Clippings dry wt", "setting": "0.5 oz/1000 ft^2, day 14", "result": 0.149, "unit": "b g/pot"},
      {"measurement": "Leaf color (1-9, 9 = dark green)", "setting": "0.5 oz/1000 ft^2, day 14", "result": 7.3, "unit": "abc"},
      {"measurement": "PE (Fv/Fm)", "setting": "0.5 oz/1000 ft^2, day 14", "result": 0.751, "unit": "a"},
      {"measurement": "Proline", "setting": "0.5 oz/1000 ft^2, day 14", "result": 46.1, "unit": "a mg/g FW"},
      {"measurement": "Carotenoids", "setting": "0.5 oz/1000 ft^2, day 28", "result": 1.18, "unit": "ab mg/g FW"},
      {"measurement": "Chlorophyll", "setting": "0.5 oz/1000 ft^2, day 28", "result": 3.09, "unit": "ab mg/g FW"},
      {"measurement": "Clippings dry wt", "setting": "0.5 oz/1000 ft^2, day 28", "result": 0.151, "unit": "b g/pot"},
      {"measurement": "Leaf color (1-9, 9 = dark green)", "setting": "0.5 oz/1000 ft^2, day 28", "result": 6.9, "unit": "a"},
      {"measurement": "PE (Fv/Fm)", "setting": "0.5 oz/1000 ft^2, day 28", "result": 0.676, "unit": "ab"},
      {"measurement": "Proline", "setting": "0.5 oz/1000 ft^2, day 28", "result": 24.3, "unit": "b mg/g FW"},
      {"measurement": "Carotenoids", "setting": "0.5 oz/1000 ft^2, day 42", "result": 1.12, "unit": "a mg/g FW"},
      {"measurement": "Chlorophyll", "setting": "0.5 oz/1000 ft^2, day 42", "result": 2.76, "unit": "ab mg/g FW"},
      {"measurement": "Clippings dry wt", "setting": "0.5 oz/1000 ft^2, day 42", "result": 0.159, "unit": "a g/pot"},
      {"measurement": "Leaf color (1-9, 9 = dark green)", "setting": "0.5 oz/1000 ft^2, day 42", "result": 7.1, "unit": "a"},
      {"measurement": "PE (Fv/Fm)", "setting": "0.5 oz/1000 ft^2, day 42", "result": 0.631, "unit": "b"},
      {"measurement": "Proline", "setting": "0.5 oz/1000 ft^2, day 42", "result": 30.2, "unit": "c mg/g FW"},
      {"measurement": "Carotenoids", "setting": "0.5 oz/1000 ft^2, day 56", "result": 1.12, "unit": "a mg/g FW"},
      {"measurement": "Chlorophyll", "setting": "0.5 oz/1000 ft^2, day 56", "result": 2.98, "unit": "a mg/g FW"},
      {"measurement": "Clippings dry wt", "setting": "0.5 oz/1000 ft^2, day 56", "result": 0.233, "unit": "ab g/pot"},
      {"measurement": "Leaf color (1-9, 9 = dark green)", "setting": "0.5 oz/1000 ft^2, day 56", "result": 7.0, "unit": "a"},
      {"measurement": "PE (Fv/Fm)", "setting": "0.5 oz/1000 ft^2, day 56", "result": 0.649, "unit": "a"},
      {"measurement": "Proline", "setting": "0.5 oz/1000 ft^2, day 56", "result": 79.6, "unit": "a mg/g FW"},
      {"measurement": "Root Biomass", "setting": "0.5 oz/1000 ft^2, end of trial", "result": 1.72, "unit": "ab g/pot"},
      {"measurement": "Root Diameter", "setting": "0.5 oz/1000 ft^2, end of trial", "result": 0.192, "unit": "a mm"},
      {"measurement": "Root Length", "setting": "0.5 oz/1000 ft^2, end of trial", "result": 39.7, "unit": "ab mm/cm^3"},
      {"measurement": "Root SA (surface area)", "setting": "0.5 oz/1000 ft^2, end of trial", "result": 2.40, "unit": "ab cm^3/cm^3"},
      {"measurement": "Root Volume", "setting": "0.5 oz/1000 ft^2, end of trial", "result": 11.6, "unit": "a dm^3/cm^3"},
      {"measurement": "Root Viability", "setting": "0.5 oz/1000 ft^2, end of trial", "result": 0.739, "unit": "bcd A490/g FW"},
      {"measurement": "increase of chlorophyll content", "setting": "1.0 oz", "result": 22.2, "unit": "%"},
      {"measurement": "Clippings dry wt", "setting": "1.0 oz/1000 ft^2, Total", "result": 0.842, "unit": "ab g/pot"},
      {"measurement": "Carotenoids", "setting": "1.0 oz/1000 ft^2, day 0", "result": 1.31, "unit": "a mg/g FW"},
      {"measurement": "Chlorophyll", "setting": "1.0 oz/1000 ft^2, day 0", "result": 3.46, "unit": "a mg/g FW"},
      {"measurement": "Leaf color (1-9, 9 = dark green)", "setting": "1.0 oz/1000 ft^2, day 0", "result": 7.5, "unit": "a"},
      {"measurement": "PE (Fv/Fm)", "setting": "1.0 oz/1000 ft^2, day 0", "result": 0.777, "unit": "a"},
      {"measurement": "Proline", "setting": "1.0 oz/1000 ft^2, day 0", "result": 19.8, "unit": "a mg/g FW"},
      {"measurement": "Carotenoids", "setting": "1.0 oz/1000 ft^2, day 14", "result": 1.33, "unit": "a mg/g FW"},
      {"measurement": "Chlorophyll", "setting": "1.0 oz/1000 ft^2, day 14", "result": 3.51, "unit": "a mg/g FW"},
      {"measurement": "Clippings dry wt", "setting": "1.0 oz/1000 ft^2, day 14", "result": 0.187, "unit": "ab g/pot"},
      {"measurement": "Leaf color (1-9, 9 = dark green)", "setting": "1.0 oz/1000 ft^2, day 14", "result": 7.5, "unit": "a"},
      {"measurement": "PE (Fv/Fm)", "setting": "1.0 oz/1000 ft^2, day 14", "result": 0.738, "unit": "ab"},
      {"measurement": "Proline", "setting": "1.0 oz/1000 ft^2, day 14", "result": 43.5, "unit": "ab mg/g FW"},
      {"measurement": "Carotenoids", "setting": "1.0 oz/1000 ft^2, day 28", "result": 1.23, "unit": "a mg/g FW"},
      {"measurement": "Chlorophyll", "setting": "1.0 oz/1000 ft^2, day 28", "result": 3.31, "unit": "a mg/g FW"},
      {"measurement": "Clippings dry wt", "setting": "1.0 oz/1000 ft^2, day 28", "result": 0.183, "unit": "ab g/pot"},
      {"measurement": "Leaf color (1-9, 9 = dark green)", "setting": "1.0 oz/1000 ft^2, day 28", "result": 7.3, "unit": "a"},
      {"measurement": "PE (Fv/Fm)", "setting": "1.0 oz/1000 ft^2, day 28", "result": 0.718, "unit": "ab"},
      {"measurement": "Proline", "setting": "1.0 oz/1000 ft^2, day 28", "result": 24.6, "unit": "b mg/g FW"},
      {"measurement": "Carotenoids", "setting": "1.0 oz/1000 ft^2, day 42", "result": 1.17, "unit": "a mg/g FW"},
      {"measurement": "Chlorophyll", "setting": "1.0 oz/1000 ft^2, day 42", "result": 2.93, "unit": "a mg/g FW"},
      {"measurement": "Clippings dry wt", "setting": "1.0 oz/1000 ft^2, day 42", "result": 0.223, "unit": "a g/pot"},
      {"measurement": "Leaf color (1-9, 9 = dark green)", "setting": "1.0 oz/1000 ft^2, day 42", "result": 7.1, "unit": "a"},
      {"measurement": "PE (Fv/Fm)", "setting": "1.0 oz/1000 ft^2, day 42", "result": 0.683, "unit": "ab"},
      {"measurement": "Proline", "setting": "1.0 oz/1000 ft^2, day 42", "result": 43.8, "unit": "ab mg/g FW"},
      {"measurement": "Carotenoids", "setting": "1.0 oz/1000 ft^2, day 56", "result": 1.06, "unit": "a mg/g FW"},
      {"measurement": "Chlorophyll", "setting": "1.0 oz/1000 ft^2, day 56", "result": 2.75, "unit": "ab mg/g FW"},
      {"measurement": "Clippings dry wt", "setting": "1.0 oz/1000 ft^2, day 56", "result": 0.249, "unit": "a g/pot"},
      {"measurement": "Leaf color (1-9, 9 = dark green)", "setting": "1.0 oz/1000 ft^2, day 56", "result": 7.0, "unit": "a"},
      {"measurement": "PE (Fv/Fm)", "setting": "1.0 oz/1000 ft^2, day 56", "result": 0.664, "unit": "a"},
      {"measurement": "Proline", "setting": "1.0 oz/1000 ft^2, day 56", "result": 67.6, "unit": "a mg/g FW"},
      {"measurement": "Root Biomass", "setting": "1 oz/1000 ft^2, end of trial", "result": 1.57, "unit": "ab g/pot"},
      {"measurement": "Root Diameter", "setting": "1 oz/1000 ft^2, end of trial", "result": 0.192, "unit": "a mm"},
      {"measurement": "Root Length", "setting": "1 oz/1000 ft^2, end of trial", "result": 39.0, "unit": "ab mm/cm^3"},
      {"measurement": "Root SA (surface area)", "setting": "1 oz/1000 ft^2, end of trial", "result": 2.32, "unit": "ab cm^3/cm^3"},
      {"measurement": "Root Volume", "setting": "1 oz/1000 ft^2, end of trial", "result": 11.0, "unit": "a dm^3/cm^3"},
      {"measurement": "Root Viability", "setting": "1 oz/1000 ft^2, end of trial", "result": 1.019, "unit": "abc A490/g FW"}
    ]}
  ]
}
